Data: patent US8530493B2, “Indolopyridines as Eg5 kinesin modulators” (4SC AG, priority 2006, dated 2013)

Key:
[1] = system: RKO p27 or p21 uninduced (proliferating) colon adenocarcinoma cells; experiment: Alamar Blue cell viability assay, RKO p27 or p21 uninduced (proliferating); assay type: cell-based; details: Homo sapiens, RKOp27, 72 h, Table B2, anti-proliferative/cytotoxic activity, read-out: −log EC50 RKO p27 or p21 uninduced (proliferating) (converted)
Method: The anti-proliferative/cytotoxic activity of the compounds described herein can be tested on subclones of RKO human colon adenocarcinoma cells (Schmidt et al., Oncogene 19, 2423-2429; 2000) using the Alamar Blue cell viability assay (described in O'Brien et al. Eur J Biochem 267, 5421-5426, 2000). The compounds are dissolved as 10 mM solutions in DMSO and subsequently diluted in semi-logarithmic steps. DMSO dilutions are further diluted 1:100 into Dulbecco's modified Eagle's medium (DMEM) containing 10% fetal calf serum to a final concentration twice as much as the final concentration in the test. RKO subclones are seeded into 96 well flat bottom plates at a density of 4000 cells per well in a volume of 50 μl per well. 24 hours after seeding the 50 μl each of the compound dilutions in DMEM medium are added into each well of the 96 well plate. Each compound dilution is tested as triplicates. Wells containing untreated control cells are filled with 50 μl DMEM medium containing 1% DMSO. The cells are then incubated with the substances for 72 hours at 37° C. in a humidified atmosphere containing 5% carbon dioxide. To determine the viability of the cells, 10 μl of an Alamar Blue solution (Biosource) are added and the fluorescence is measured at an extinction of 544 nm and an emission of 590 nm. For the calculation of the cell viability the emission value from untreated cells is set as 100% viability and the emission rates of treated cells are set in relation to the values of untreated cells. Viabilities are expressed as % values. The Graphpad Prism program is used for the calculation of EC50 values for anti-proliferative/cytotoxic activity out of the obtained dose-response curves.
(§1) To determine the cell cycle specific mode of action, subclones of RKO colon adenocarcinoma cells (RKOp21 or RKOp27 as described by Schmidt et al. in Oncogene 19, 2423-2429; 2000) are seeded into 96 well flat bottom plates at a density of 16000 cells per well in a volume of 50 μl per well in DMEM growth medium with 10% FCS containing 10 μM Ponasterone A. 24 hours after seeding the 50 μl each of the compound dilutions in DMEM medium are added into each well of the 96-well plate. Each compound dilution is tested as triplicates. Wells containing untreated control cells are filled with 50 μl DMEM medium containing 1% DMSO. The cells are then incubated with the substances for 72 hours at 37° C. in a humidified atmosphere containing 5% carbon dioxide. To determine the viability of the cells, 10 μl of an Alamar Blue solution (Biosource) are added and the fluorescence is measured at an extinction of 544 nm and an emission of 590 nm. For the calculation of the cell viability the emission value from untreated cells is set as 100% viability and the emission rates of treated cells are set in relation to the values of untreated cells. Viabilities are expressed as % values. The Graphpad Prism program (GraphPad Software, Inc) is used for the calculation of EC50 values out of the obtained dose-response curves. Viability is compared of proliferating cells grown in the absence of the inducer Ponasterone A, versus viability of cells arrested by the expression of ectopic p27Kip1 induced by Ponasterone A.
(§2) Representative values for anti-proliferation/cytotoxicity [measured as −log EC50 (mol/l)] determined in the aforementioned assays follow from the following tables B1, B2 and B3, in which the numbers of the compounds correspond to the numbers of the examples.

[2] = system: RKO p27 or p21 induced (arrested) colon adenocarcinoma cells; experiment: Alamar Blue cell viability assay, RKO p27 or p21 induced (arrested); assay type: cell-based; details: Homo sapiens, RKOp27, Table B2, cells arrested by Ponasterone A, 72 hours, read-out: −log EC50 RKO p27 or p21 induced (arrested) (converted)
Method: as §1, §2

EC50 [2] | Compound | EC50 [1]
≥ 3.16 µM | CCN(CCO)CCN1C(=O)N2[C@H](c3cccc(O)c3)c3[nH]c4ccc(OC)cc4c3C[C@@]2(C)C1=O (racemic) [Example 78, (3aSR,10RS)-2-[2-[Ethyl-(2-hydroxy-ethyl)-amino]-ethyl}-10-(3-hydroxy-phenyl)-6-methoxy-3a-methyl-3a,4,9,10-tetrahydro-2,9,10a-triaza-cyclopenta[b]fluorene-1,3-dione] | ≤ 39.8 nM
≥ 3.16 µM | CCN(CCOC)CCN1C(=O)N2[C@H](c3cccc(O)c3)c3[nH]c4ccc(OC)cc4c3C[C@@]2(C)C1=O (racemic) [Example 79, (3aSR,10RS)-2-[2-[Ethyl-(2-methoxy-ethyl)-amino]-ethyl}-10-(3-hydroxy-phenyl)-6-methoxy-3a-methyl-3a,4,9,10-tetrahydro-2,9,10a-triaza-cyclopenta[b]fluorene-1,3-dione] | ≤ 39.8 nM
≥ 3.16 µM | C=CCN(C)CCN1C(=O)N2[C@H](c3cccc(O)c3)c3[nH]c4ccc(OC)cc4c3C[C@@]2(C)C1=O (racemic) [Example 80, (3aSR,10RS)-2-[2-(Allyl-methyl-amino)-ethyl]-10-(3-hydroxy-phenyl)-6-methoxy-3a-methyl-3a,4,9,10-tetrahydro-2,9,10a-triaza-cyclopenta[b]fluorene-1,3-dione] | ≤ 39.8 nM
≥ 3.16 µM | C#CCN(C)CCN1C(=O)N2[C@H](c3cccc(O)c3)c3[nH]c4ccc(OC)cc4c3C[C@@]2(C)C1=O (racemic) [Example 81, (3aSR,10RS)-10-(3-Hydroxy-phenyl)-6-methoxy-3a-methyl-2-[2-(methyl-prop-2-ynyl-amino)-ethyl]-3a,4,9,10-tetrahydro-2,9,10a-triaza-cyclopenta[b]fluorene-1,3-dione] | ≤ 39.8 nM
≥ 3.16 µM | COc1ccc2[nH]c3c(c2c1)C[C@@]1(C)C(=O)N(CCNCCO)C(=O)N1[C@@H]3c1cccc(O)c1 (racemic) [Example 82, (3aSR,10RS)-2-[2-(2-Hydroxy-ethylamino)-ethyl]-10-(3-hydroxy-phenyl)-6-methoxy-3a-methyl-3a,4,9,10-tetrahydro-2,9,10a-triaza-cyclopenta[b]fluorene-1,3-dione] | ≤ 39.8 nM
≥ 3.16 µM | COCCNCCN1C(=O)N2[C@H](c3cccc(O)c3)c3[nH]c4ccc(OC)cc4c3C[C@@]2(C)C1=O (racemic) [Example 83, (3aSR,10RS)-10-(3-Hydroxy-phenyl)-6-methoxy-2-[2-(2-methoxy-ethylamino)-ethyl]-3a-methyl-3a,4,9,10-tetrahydro-2,9,10a-triaza-cyclopenta[b]fluorene-1,3-dione] | ≤ 39.8 nM
≥ 3.16 µM | C=CCNCCN1C(=O)N2[C@H](c3cccc(O)c3)c3[nH]c4ccc(OC)cc4c3C[C@@]2(C)C1=O (racemic) [Example 84, (3aSR,10RS)-2-(2-Allylamino-ethyl)-10-(3-hydroxy-phenyl)-6-methoxy-3a-methyl-3a,4,9,10-tetrahydro-2,9,10a-triaza-cyclopenta[b]fluorene-1,3-dione] | ≤ 39.8 nM
≥ 3.16 µM | C#CCNCCN1C(=O)N2[C@H](c3cccc(O)c3)c3[nH]c4ccc(OC)cc4c3C[C@@]2(C)C1=O (racemic) [Example 85, (3aSR,10RS)-10-(3-Hydroxy-phenyl)-6-methoxy-3a-methyl-2-(2-prop-2-ynylamino-ethyl)-3a,4,9,10-tetrahydro-2,9,10a-triaza-cyclopenta[b]fluorene-1,3-dione] | 39.8 to 251 nM
≥ 3.16 µM | COc1ccc2[nH]c3c(c2c1)C[C@@]1(C)C(=O)N(CCCNC2CCC2)C(=O)N1[C@@H]3c1cccc(O)c1 (racemic) [Example 86, (3aSR,10RS)-2-(3-Cyclobutylamino-propyl)-10-(3-hydroxy-phenyl)-6-methoxy-3a-methyl-3a,4,9,10-tetrahydro-2,9,10a-triaza-cyclopenta[b]fluorene-1,3-dione] | ≤ 39.8 nM
≥ 3.16 µM | COc1ccc2[nH]c3c(c2c1)C[C@@]1(C)C(=O)N(CCCN2CCC2)C(=O)N1[C@@H]3c1cccc(O)c1 (racemic) [Example 87, (3aSR,10RS)-2-(3-Azetidin-1-yl-propyl)-10-(3-hydroxy-phenyl)-6-methoxy-3a-methyl-3a,4,9,10-tetrahydro-2,9,10a-triaza-cyclopenta[b]fluorene-1,3-dione] | ≤ 39.8 nM
≥ 3.16 µM | C=CCN(C)CCCN1C(=O)N2[C@H](c3cccc(O)c3)c3[nH]c4ccc(OC)cc4c3C[C@@]2(C)C1=O (racemic) [Example 88, (3aSR,10RS)-2-[3-(Allyl-methyl-amino)-propyl]-10-(3-hydroxy-phenyl)-6-methoxy-3a-methyl-3a,4,9,10-tetrahydro-2,9,10a-triaza-cyclopenta[b]fluorene-1,3-dione] | ≤ 39.8 nM
≥ 3.16 µM | CCN(CCO)CCCN1C(=O)N2[C@H](c3cccc(O)c3)c3[nH]c4ccc(OC)cc4c3C[C@@]2(C)C1=O (racemic) [Example 89, (3aSR,10RS)-2-{3-[Ethyl-(2-hydroxy-ethyl)-amino]-propyl}-10-(3-hydroxy-phenyl)-6-methoxy-3a-methyl-3a,4,9,10-tetrahydro-2,9,10a-triaza-cyclopenta[b]fluorene-1,3-dione] | ≤ 39.8 nM
≥ 3.16 µM | CCN(CCCN1C(=O)N2[C@H](c3cccc(O)c3)c3[nH]c4ccc(OC)cc4c3C[C@@]2(C)C1=O)CCOC (racemic) [Example 90, (3aSR,10RS)-2-{3-[Ethyl-(2-methoxy-ethyl)-amino]-propyl}-10-(3-hydroxy-phenyl)-6-methoxy-3a-methyl-3a,4,9,10-tetrahydro-2,9,10a-triaza-cyclopenta[b]fluorene-1,3-dione] | ≤ 39.8 nM
≥ 3.16 µM | COc1ccc2[nH]c3c(c2c1)C[C@@]1(C)C(=O)N(CCCNCC(C)C)C(=O)N1[C@@H]3c1cccc(O)c1 (racemic) [Example 92, (3aSR,10RS)-10-(3-Hydroxy-phenyl)-2-(3-isobutylamino-propyl)-6-methoxy-3a-methyl-3a,4,9,10-tetrahydro-2,9,10a-triaza-cyclopenta[b]fluorene-1,3-dione] | ≤ 39.8 nM
≥ 3.16 µM | COc1ccc2[nH]c3c(c2c1)C[C@@]1(C)C(=O)N(CCCNC2CC2)C(=O)N1[C@@H]3c1cccc(O)c1 (racemic) [Example 93, (3aSR,10RS)-2-(3-Cyclopropylamino-propyl)-10-(3-hydroxy-phenyl)-6-methoxy-3a-methyl-3a,4,9,10-tetrahydro-2,9,10a-triaza-cyclopenta[b]fluorene-1,3-dione] | ≤ 39.8 nM
≥ 3.16 µM | COc1ccc2[nH]c3c(c2c1)C[C@@]1(C)C(=O)N(CCCN(C)C(C)C)C(=O)N1[C@@H]3c1cccc(O)c1 (racemic) [Example 94, (3aSR,10RS)-10-(3-Hydroxy-phenyl)-2-[3-(isopropyl-methyl-amino)-propyl]-6-methoxy-3a-methyl-3a,4,9,10-tetrahydro-2,9,10a-triaza-cyclopenta[b]fluorene-1,3-dione] | ≤ 39.8 nM
≥ 3.16 µM | COc1ccc2[nH]c3c(c2c1)C[C@@]1(C)C(=O)N(CCCNCC2CC2)C(=O)N1[C@@H]3c1cccc(O)c1 (racemic) [Example 95, (3aSR,10RS)-2-[3-(Cyclopropylmethyl-amino)-propyl]-10-(3-hydroxy-phenyl)-6-methoxy-3a-methyl-3a,4,9,10-tetrahydro-2,9,10a-triaza-cyclopenta[b]fluorene-1,3-dione] | ≤ 39.8 nM
≥ 3.16 µM | COc1ccc2[nH]c3c(c2c1)C[C@@]1(C)C(=O)N(CCCN2CCCC2)C(=O)N1[C@@H]3c1cccc(O)c1 (racemic) [Example 96, (3aSR,10RS)-10-(3-Hydroxy-phenyl)-6-methoxy-3a-methyl-2-(3-pyrrolidin-1-yl-propyl)-3a,4,9,10-tetrahydro-2,9,10a-triaza-cyclopenta[b]fluorene-1,3-dione] | ≤ 39.8 nM
